Structures can show the parent of a compound that is named as a salt. Where two headings read alike, the source gives them in different places. Each block holds one compound with its values, some of them ahead of it.
What was measured:
Assay type in all cases: physicochemical
[1] = Photostability (2xICH), HPLC
Source text: Photostability (Table 12): Sample preparation: Control—about 1 g of sample was transferred into a weighting bottle and covered with a glass cover. The sample was wrapped in aluminum foil to protect from light and placed into the photostability chamber. Photostability sample: about 1 g of sample was transferred into a weighing bottle, then placed into the photostability chamber. Storage conditions: The photostability samples were stored according to ICH Photostability Option 2: A cool white fluorescent lamp designed to produce an output similar to that specified in ISO 10977 (1993), a near UV fkuorescent lamp having a spectral distribution from 320 nm to 400 nm with a maximum energy emission between 350 nm and 370 nm; a significant portion of UV should be in both bands of 320 to 360 nm and 360 to 400 nm. The photo stability and dark control samples were exposed to the light equipment providing photo intensity if 5000±500 Lx (near ultraviolet energy 0.84 W/m^2±10%) and irradiated for 12 days (samples exposed to light providing an overall illumination of not less than 1.2 million lux hours and an integrated near UV energy of not less than 200 watt hours/quare meter).
Photostability (HPLC) (Table 12): An Agilent 1100 HPLC was used with a Waters XSelect HSS T3 Column (100 angstrom, 4.6×150 mm, 5 μm). The column temperature was set to 20° C., the UV wavelength set to 254 nm, the injection volume was 10 μL, with a flow rate of 1.0 mL/min. 10 mM ammonium acetate adjusted to pH 4.8 was used as a mobile phase A, and acetonitrile was used as mobile phase B. The gradient method was set up to achieve 15% mobile phase B at 0 minutes, 95% mobile phase B at 17 minutes—held until 22 minutes, 15% mobile phase. […]
Physical (PXRD) (Table 13): Powder X-ray diffraction analysis was conducted using a Bruker AXS D8 Endeavor diffractometer equipped with a Cu radiation source. […] Diffracted radiation was detected by a PSD-Lynx Eye detector, with the detector PSD opening set at 2.99 degrees. […]

[2] = Solubility in buffers, HPLC of mother liquors (Tables 12 and 13); conditions: for solubility at 25 h: 25 °C, thermodynamic from solid, read-out: Solubility Concentration
Procedure: Upon addition of the buffer solutions, the samples were vortexed. The samples were rotated at 40° C. for 8 hours, 15° C. for 5 hours, and 25° C. for 12 hours in an Envirogenie thermomixer. After the thermomixing cycle, the slurries were isolated by centrifugation filtration and the isolated mother liquors were analyzed by HPLC.
HPLC method (Tables 12 and 13): An Agilent 1290 UPLC instrument was used with a Waters XSelect HSS T3 Column (100 angstrom, 4.6×150 mm, 5 μm). The column temperature was set to 20° C., the UV wavelength set to 254 nm, the injection volume was 10 μL, with a flow rate of 1.0 mL/min. 10 mM Ammonium acetate adjusted to pH 4.8 was used as a mobile phase A, and acetonitrile was used as mobile phase B. The gradient method was set up to achieve 15% mobile phase B at 0 minutes, 95% mobile phase B at 17 minutes—held until 22 minutes, 15% mobile phase B at 22.1 minutes—held until 28 minutes.

[3] = Grinding assessment of form and crystallinity
[4] = Thermal analysis TGA/DSC (Tables 12 and 13); conditions: 10° C./minute heating rate
Procedure: Thermogravimetric Analysis (“TGA”) (Table 12): Thermogravimetric analysis was conducted using a Discovery TGA (TA instruments) thermogravimetric analyzer. Samples of approximately 10 mg were weighed into aluminum pans and heated from ambient to 300° C. at 10° C./minute heating rate under nitrogen purge (10 mL/min for both sample chamber and balance).
Differential Scanning Calorimetry (“DSC”) (Table 12): DSC measurements were performed with Discovery DSC (TA instruments) equipped with a refrigerated cooling accessory. All the experiments were performed in standard/Tzero aluminum pans. The cell constant was determined using indium and temperature calibration was performed using indium and tin as standards. All the measurements were done under continuous dry nitrogen purge (50 mL/min). Approximately 1-5 mg of solid sample was weighed into a Tzero aluminum pan, sealed non-hermetically and heated from 0° C. to 250° C. at 10° C./min heating rate. The experimental data were analyzed using commercially available software (TA Universal Analysis 2000/Trios software, TA Instruments).
TGA/DSC (Table 13): A Simultaneous DSC/TGA instrument was used for the thermal analysis. Approximately 3.2 mg of the API was placed in an aluminum Tzero DSC pan was loaded into the instrument via autosampler. The sample was equilibrated to 35° C. in the instrument prior to analysis and was ramped to 400° C. at a ramp rate of 10° C./min. Dry nitrogen gas from the in-house supply was used.

Photostability (2xICH), decrease in purity [1]: 0.53% decrease in purity
solubility at 25 h ([2]; Water, Final pH 5.01, Final XRD Succinate Form 1): 8180 µg/mL
solubility at 25 h ([2]; pH 3 buffer, aqueous buffer, pH 3, Final pH 4.5, Final XRD Succinate Form 1): 4220 µg/mL
solubility at 25 h ([2]; pH 4 acetate buffer, aqueous buffer, pH 4, Final pH 4.16, Final XRD Insufficient solids): 6400 µg/mL
solubility at 25 h ([2]; pH 5 buffer, aqueous buffer, pH 5, Final pH 5.08, Final XRD Succinate Form 1): 4440 µg/mL
solubility at 25 h ([2]; pH 6 phosphate buffer, aqueous buffer, pH 6, Final pH 5.37, Final XRD Freebase Form 1): 597 µg/mL
solubility at 25 h ([2]; pH 7 buffer, aqueous buffer, pH 7, Final pH 6.81, Final XRD Insufficient solids): 17.1 µg/mL
solubility at 25 h ([2]; pH 8 buffer, aqueous buffer, pH 8, Final pH 7.78, Final XRD Freebase Form 1): 2.66 µg/mL
solubility at 25 h ([2]; pH 9 buffer, aqueous buffer, pH 9, Final pH 9.01, Final XRD Freebase Form 1): 0.18 µg/mL
solubility at 25 h ([2]; pH 10 buffer, aqueous buffer, pH 10, Final pH 9.82, Final XRD Freebase Form 1): 0.17 µg/mL
Grinding Assessment [3]: Reduction in crystallinity
Decomposition Onset (° C.) [4]: ~180 °C
Compound: Nc1nccc(Sc2cnc(N3CCC4(CC3)Cc3ccccc3[C@H]4N)nn2)c1Cl [Example 3, (S)-1′-(6-((2-amino-3-chloropyridin-4-yl)thio)-1,2,4-triazin-3-yl)-1,3-dihydrospiro[indene-2,4′-piperidin]-1-amine Mono Succinate Salt Form 1]

Photostability (2xICH), photodeg RRT 1.16 [1]: ~0.36%
Photostability (2xICH), photodeg RRT 1.62 [1]: ~0.32%
Solubility Concentration ([2]; Water, Final pH 9.19, Final XRD Additional peak at 8°): 0.24 µg/mL
Solubility Concentration ([2]; pH 3, Final pH 4.51, Final XRD Freebase Form 1): 2044.85 µg/mL
Solubility Concentration ([2]; pH 4, Final pH 5.12, Final XRD Freebase Form 1): 301.79 µg/mL
Solubility Concentration ([2]; pH 5, Final pH 6.06, Final XRD Freebase Form 1): 58.53 µg/mL
Solubility Concentration ([2]; pH 6, Final pH 6.95, Final XRD Freebase Form 1): 32.25 µg/mL
Solubility Concentration ([2]; pH 7, Final pH 8.19, Final XRD Freebase Form 1): 10.05 µg/mL
Solubility Concentration ([2]; pH 8, Final pH 9.13, Final XRD Insufficient solids): 0.56 µg/mL
Solubility Concentration ([2]; pH 9, Final pH 10.2, Final XRD Insufficient solids): 0.26 µg/mL
Solubility Concentration ([2]; pH 10, Final pH 3.94, Final XRD Insufficient solids): 0.45 µg/mL
Grinding Assessment [3]: No change in form or crystallinity
Decomposition Onset (° C.) [4]: ~240 °C
Dehyradtion Onset (° C.) [4]: ~72 °C
Compound: Nc1nccc(Sc2cnc(N3CCC4(CC3)Cc3ccccc3[C@H]4N)nn2)c1Cl.Nc1nccc(Sc2cnc(N3CCC4(CC3)Cc3ccccc3[C@H]4N)nn2)c1Cl.O [Example 2, (S)-1′-(6-((2-amino-3-chloropyridin-4-yl)thio)-1,2,4-triazin-3-yl)-1,3-dihydrospiro[indene-2,4′-piperidin]-1-amine Free Base Hemihydrate (Form 1)]
